This assay addresses T1, SrLDC (Pseudoselenomonas ruminantium, UniProt O50657, A225C/T302C).
T1 construct: gene ldc
The assay is described as follows: isothermal titration calorimetry. The assay is classed as binding. For orientation: ITC needs no label: the signal is the heat of the interaction.

T1 sequence (O50657 whole entry A225C/T302C): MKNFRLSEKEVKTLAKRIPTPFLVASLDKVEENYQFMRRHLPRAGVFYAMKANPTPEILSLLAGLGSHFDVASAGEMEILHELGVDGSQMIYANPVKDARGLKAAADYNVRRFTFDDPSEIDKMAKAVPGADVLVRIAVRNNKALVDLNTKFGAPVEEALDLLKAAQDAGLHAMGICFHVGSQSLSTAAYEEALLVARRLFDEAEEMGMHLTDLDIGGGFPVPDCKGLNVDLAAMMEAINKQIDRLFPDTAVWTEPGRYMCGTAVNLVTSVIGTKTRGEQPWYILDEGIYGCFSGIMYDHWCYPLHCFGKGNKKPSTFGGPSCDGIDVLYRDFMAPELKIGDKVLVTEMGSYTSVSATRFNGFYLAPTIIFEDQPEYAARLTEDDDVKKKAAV

As usually defined, the Kd is the equilibrium constant for the complex coming apart. `Cc1ncc(COP(=O)(O)O)c(C=O)c1O` [pyridoxal 5-phosphate] returned a Kd of 21 µM.

These data come from paper PMC5240995, “Lysine Decarboxylase with an Enhanced Affinity for Pyridoxal 5-Phosphate by Disulfide Bond-Mediated Spatial Reconstitution” (PLoS ONE, 2017).
